Source: patent US20100285032A1, “ESTROGEN RECEPTOR-RELATED RECEPTOR GAMMA (ERR GAMMA) IN BONE AND CARTILAGE FORMATION AND METHODS AND COMPOSITIONS RELATING TO SAME” (priority 2007, published 2010)

Key:
[1] = tested on: PGC-1/ERRα; details: cited from earlier work
[2] = tested on: ERRs; details: cited from earlier work
[3] = biological target: T1, ERRγ (Homo sapiens, UniProt P62508); details: cited from earlier work
T1 sequence (P62508 1-458): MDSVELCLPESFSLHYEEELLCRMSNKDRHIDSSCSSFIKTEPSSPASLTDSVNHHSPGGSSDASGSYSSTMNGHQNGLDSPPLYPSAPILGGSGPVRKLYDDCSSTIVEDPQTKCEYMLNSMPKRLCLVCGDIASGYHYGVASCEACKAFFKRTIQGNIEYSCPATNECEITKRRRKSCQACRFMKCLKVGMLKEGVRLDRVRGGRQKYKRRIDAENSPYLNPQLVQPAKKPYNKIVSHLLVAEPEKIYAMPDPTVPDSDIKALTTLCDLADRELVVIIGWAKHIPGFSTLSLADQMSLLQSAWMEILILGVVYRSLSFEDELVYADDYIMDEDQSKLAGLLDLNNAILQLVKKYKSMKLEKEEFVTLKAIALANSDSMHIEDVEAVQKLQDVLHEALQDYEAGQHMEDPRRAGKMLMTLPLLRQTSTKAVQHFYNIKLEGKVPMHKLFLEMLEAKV

[4] = biological target: T2, ERRα (Homo sapiens, UniProt P11474); details: yeast-based and mammalian transient transfection assays; cited from earlier work
T2 construct: host or cells: yeast
T2 sequence (P11474 1-423): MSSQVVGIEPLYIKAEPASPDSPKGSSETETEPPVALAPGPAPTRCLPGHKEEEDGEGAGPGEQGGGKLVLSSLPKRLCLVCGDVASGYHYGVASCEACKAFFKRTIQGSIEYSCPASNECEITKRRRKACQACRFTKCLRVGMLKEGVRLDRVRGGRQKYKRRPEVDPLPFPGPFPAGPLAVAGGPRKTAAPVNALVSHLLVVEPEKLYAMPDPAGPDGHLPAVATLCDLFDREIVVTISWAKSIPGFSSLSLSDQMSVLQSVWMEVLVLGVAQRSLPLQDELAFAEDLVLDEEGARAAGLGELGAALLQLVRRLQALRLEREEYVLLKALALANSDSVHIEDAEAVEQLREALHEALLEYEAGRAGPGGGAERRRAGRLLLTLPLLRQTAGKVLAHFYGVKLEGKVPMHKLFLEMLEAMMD

[5] = tested on: rat calvaria (RC) cells; experiment: Bone nodule formation in rat calvaria (RC) cell cultures after oligonucleotide treatment; type: cell-based
Experimental: (§1) Cells were isolated from 21-day-old fetal Wistar rat or neonatal mouse calvariae or were the chondrogenic C5.18 cell line and were grown for osteogenic or chondrogenic differentiation as described previously (Bonnelye et al., 2001; Bonnelye et al., 2007). Medium was replaced every second day and cells were cultured at 37° C. in a 5% CO2 humidified atmosphere for 15-20 days until mineralized bone nodules or cartilage nodules had formed in control cultures.
(§2) Rat calvarial cells were plated into 24 well plates at 10^4 cells/well. Antisense oligonucleotide inhibition of ERRγ expression was accomplished with a 20-base phosphorothioate-modified oligonucleotide. Control dishes were treated with the complementary sense oligonucleotide or no oligonucleotide. Briefly, oligonucleotide concentrations that have been found previously not to be toxic (0.5 μM to 2 μM) were added directly to cells during the proliferation (day 1-5) or differentiation phase (day 5 (end of proliferation) to 11) in standard medium as above supplemented with 50 μg/ml ascorbic acid, 10 mM sodium β-glycerophosphate. Medium was changed every 2 days and fresh oligonucleotides were added at each change. At day 15, cultures were terminated and stained for alkaline phosphatase according to previous protocols (Bonnelye et al., 2001).

[6] = tested on: C5.18 cells; experiment: Cartilage nodule formation in C5.18 cell cultures after oligonucleotide treatment; type: cell-based, rat; details: C5.18 cultures, treated during differentiation phase
Experimental: as §1, §2

COc1cc(/C=C(\C#N)C(=O)Nc2nnc(C(F)(F)F)s2)ccc1OCc1ccc(C(F)(F)F)cc1C(F)(F)F [XCT790]
activity on PGC-1/ERRα dependent signaling [1]: inverse agonists

O=c1c(-c2ccc(O)cc2)coc2cc(O)ccc12 [daidzein]
activity on ERRs (agonist/antagonist) [2]: agonists of ERRs

CN(C)CCOc1ccc(/C(=C(/CCCl)c2ccccc2)c2ccc(O)cc2)cc1 [4-hydroxytoremifene]
activity on ERRγ (agonist/antagonist) [3]: antagonize ERRγ

4-hydroxytamoxifen
activity on ERRγ (agonist/antagonist) [3]: antagonize ERRγ
activity on ERRs (agonist/antagonist) [2]: antagonists of ERRs

O=c1cc(-c2ccc(O)c(O)c2)oc2ccc(O)cc12 [6,3′,4′-trihydroxyflavone]
activity on ERRs (agonist/antagonist) [2]: agonists of ERRs

CC(C)c1ccc(/C=N/NC(=O)c2ccc(O)cc2)cc1 [GSK4716]
activity on ERRγ (agonist/antagonist) [3]: agonists of ERRγ

ClC1=C(Cl)C2(Cl)C3C(Cl)C(Cl)CC3C1(Cl)C2(Cl)Cl (stereo not shown) [chlordane]
effect on constitutive activity of ERRα [4]: suppress the constitutive activity of ERRα

O=c1c(-c2ccc(O)cc2)coc2cc(O)cc(O)c12 [genistein]
activity on ERRs (agonist/antagonist) [2]: agonists of ERRs

COc1ccc(-c2coc3cc(O)cc(O)c3c2=O)cc1 [biochanin A]
activity on ERRs (agonist/antagonist) [2]: agonists of ERRs

CC1(C)C(C(Cl)Cl)C2(Cl)C(Cl)C(Cl)C1(Cl)C2(Cl)Cl (stereo not shown) [toxaphene]
effect on constitutive activity of ERRα [4]: suppress the constitutive activity of ERRα

CC/C(=C(/CC)c1ccc(O)cc1)c1ccc(O)cc1 [diethylstilbestrol]
activity on ERRs (agonist/antagonist) [2]: antagonists of ERRs

ggtGGTTGACGCTGTCCGTCagg (antisense GGTGGTTGACGCTGTCCGTCAGG; all phosphorothioate, sugars by position and methylation of C not given here) [antisense oligonucleotide]
bone nodule formation ([5]; RC cultures, treated during differentiation phase (day 5 to 11)): significantly increased
bone nodule formation ([5]; RC cultures, treated during proliferation phase (day 1-5)): significantly increased
bone nodule formation ([5]; rat calvaria osteoblastic cells, treatment phase not stated): increases bone nodule formation
cartilage nodule formation [6]: tended to increase
